Test results: patent publication US9034904B2, “Forms of dexlansoprazole and processes for the preparation thereof” (APOTEX PHARMACHEM INC., priority 2009, dated 2015)

Assay: Chemical stability on storage (chemical purity by HPLC)
Format: physicochemical
Settings: for reduction in chemical purity by HPLC (area %): following 1 week of storage at 40° C. and 75% relative humidity (40° C./75% RH)

Row | Compound | chemical stability compared to other known forms of dexlansoprazole such as the amorphous form (qualitative statement, storage conditions not given) | reduction in chemical purity by HPLC (area %)
1 | Cc1c(OCC(F)(F)F)ccnc1C[S@@+]([O-])c1nc2ccccc2[nH]1 | increased chemical stability | 
2 | CC(O)CO.Cc1c(OCC(F)(F)F)ccnc1C[S@@+]([O-])c1nc2ccccc2[nH]1.O |  | essentially unchanged
3 | Cc1c(OCC(F)(F)F)ccnc1C[S@@+]([O-])c1nc2ccccc2[nH]1 [amorphous form, (R)-2-[[[3-methyl-4-(2,2,2-trifluoroethoxy)-2-pyridinyl]methyl]sulfinyl]-1H-benzimidazole, reference compound] |  | 8.5 area %
